Assay results as given in ChEMBL document CHEMBL4342431, “Synthesis and antileishmanial evaluation of thiazole orange analogs” (Bioorg Med Chem Lett, 2020).
Activity calls are given as the source filed them. The rule behind the calls is not given here.

What was measured:
[1] = tested on: Leishmania donovani; test: Antileishmanial activity against Leishmania donovani Ld1s intracellular amasitgote infected in J774 cells incubated for 72 hrs by non-radioactive cell proliferation assay; format: functional, organism-based; conditions: J774, 72 h
[2] = tested on: J774; test: Cytotoxicity against mouse J774 cells assessed as reduction in cell viability incubated for 72 hrs by MTT assay; format: cell-based; conditions: J774, 72 h
[3] = Selectivity index, ratio of IC for mouse J774 cells to IC50 for Leishmania donovani Ld1s promastigotes; format: toxicity; conditions: J774 cells versus Leishmania donovani Ld1s promastigotes, read-out: Ratio IC50
[4] = Binding affinity to 5'-dCCAAAATTTTG CTCT CAAAATTTTGG-3' DNA (unknown origin) assessed as change in melting temperature at 2:1 ligand and DNA by specrophotometry
[5] = Binding affinity to 5'-dCCAAAAGTTTTG CTCT CAAAACTTTTGG-3' DNA (unknown origin) assessed as change in melting temperature at 2:1 ligand and DNA by specrophotometry
[6] = Binding affinity to 5'-dCCAAAATTTTG CTCT CAAAATTTTGG-3' DNA (unknown origin) assessed as DNA intercalation incubated for 5 mins by circular dichroism method
[7] = tested on: Leishmania donovani; test: Antileishmanial activity against Leishmania donovani LV82 promastigotes infected in BALB/c mouse assessed as reduction in liver parasitemia at 1.2 mg/kg, ip administered for 5 days by Geimsa staining based assay relative to control; format: functional; set-up: scale not given: the % may be the effect or the level left
[8] = Selectivity index, ratio of IC50 for mouse peritoneal macrophages to IC50 for Leishmania donovani LV82 intracellular amastigotes; format: toxicity, cell-based; conditions: read-out: Ratio IC50
[9] = tested on: Leishmania donovani; test: Antileishmanial activity against Leishmania donovani LV82 intracellular amastigotes infected in murine peritoneal macrophage incubated for […] by beta-lactamase reporter gene based spectrophotometry; format: functional, organism-based
[10] = tested on: Leishmania donovani; test: Antileishmanial activity against Leishmania donovani LV82 amastigotes infected in mouse peritoneal microphage incubated for 72 hrs by DAPI staining based assay; format: functional, organism-based; conditions: LV82, 72 h

SMILES | IC50 [1] [nM] | IC50 [2] [nM] | selectivity ratio [3] | ΔTm [4] [°C] | ΔTm [5] [°C] | Activity [6] | Activity [7] [%] | selectivity ratio [8] | IC50 [9] [nM] | IC50 [10] [nM]
COc1cccc2c1c(/C=C1\Sc3ccccc3N1C)cc[n+]2C | 25 | 86 | 3.4 |  |  |  |  |  |  | 
Cc1cccc2c1c(/C=C1\Sc3ccccc3N1C)cc[n+]2C | 24 | 120 | 5 | 3 | 4 |  |  |  |  | 
COc1cc([C@@H]2c3cc4c(cc3[C@H](O)[C@H]3COC(=O)[C@H]23)OCO4)cc(OC)c1OC [PODOFILOX] |  | 23 |  |  |  |  |  |  |  | 
CN1/C(=C/c2cc[n+](C)c3ccc(-c4ccccc4)cc23)Sc2ccccc21 | 37 | 180 | 4.9 |  |  |  |  |  |  | 
CN1/C(=C/c2cc[n+](Cc3ccccc3)c3ccccc23)Sc2ccccc21 | 26 | 190 | 7 |  |  |  |  |  |  | 
CN1/C(=C/c2cc[n+](C)c3c(-c4ccccc4)cccc23)Sc2ccccc21 | 24 | 200 | 8.3 |  |  |  |  |  |  | 
COc1ccc2c(/C=C3\Sc4ccccc4N3C)cc[n+](C)c2c1 | 35 | 140 | 4 |  |  |  |  |  |  | 
Cc1ccc2c(c1)c(/C=C1\Sc3ccccc3N1C)cc[n+]2C | 31 | 200 | 6.5 | 5 | 4 | Active |  |  |  | 
Cc1ccc2c(/C=C3\Sc4ccccc4N3C)cc[n+](C)c2c1 | 37 | 120 | 3.2 | 4 | 4 |  |  |  |  | 
CN1/C(=C/c2cc[n+](C)c3ccc(Cl)cc23)Sc2ccccc21 | 31 | 310 | 10 |  |  |  |  |  |  | 
CN1/C(=C/c2cc[n+](C)c3ccccc23)Sc2ccccc21 [listing 1 of 2 here] | 14 | 190 | 14 |  |  |  |  |  |  | 
CN1/C(=C/c2cc[n+](C)c3cc(Cl)ccc23)Sc2ccccc21 | 34 | 180 | 5.3 |  |  |  |  |  |  | 
COc1ccc2c(c1)c(/C=C1\Sc3ccccc3N1C)cc[n+]2C | 28 | 200 | 7.1 |  |  |  |  |  |  | 
COc1cccc2c(/C=C3\Sc4ccccc4N3C)cc[n+](C)c12 | 30 | 59 | 2 |  |  |  |  |  |  | 
CN1/C(=C/c2cc[n+](C)c3ccccc23)Sc2ccccc21.Cc1ccc(S(=O)(=O)[O-])cc1 |  |  |  |  |  |  | 48 | 25 | 21 | 
CN1C=CC(=Cc2sc3ccccc3[n+]2C)C=C1 | 140 | 2800 | 20 | 1 | < 1 |  |  |  |  | 960
CCC[n+]1ccc(/C=C2\Sc3ccccc3N2C)c2ccccc21 | 13 | 140 | 11 |  |  |  |  |  |  | 
CN1C=CS/C1=C\c1cc[n+](C)c2ccccc12 | 160 | 1500 | 9.4 | 2 | 1 |  |  |  |  | 
CN1/C(=C/c2cc[n+](C)c3cccc(Cl)c23)Sc2ccccc21 | 16 | 130 | 8.1 |  |  |  |  |  |  | 
N=C(N)c1ccc(OCCCCCOc2ccc(C(=N)N)cc2)cc1 [PENTAMIDINE] | 3100 |  |  |  |  |  |  |  |  | 
CN1/C(=C/c2cccc[n+]2C)Sc2ccccc21 | 290 | 2500 | 8.6 | < 1 | < 1 |  |  |  |  | 1700
CN1/C(=C/c2cc[n+](C)c3cc(-c4ccccc4)ccc23)Sc2ccccc21 | 13 | 69 | 5.3 |  |  |  |  |  |  | 
Cc1cccc2c(/C=C3\Sc4ccccc4N3C)cc[n+](C)c12 | 30 | 120 | 4 | 4 | 3 |  |  |  |  | 
CN1/C(=C/c2cc[n+](C)c3cccc(-c4ccccc4)c23)Sc2ccccc21 | 42 | 160 | 3.8 | 3 | 2 |  |  |  |  | 
CN1/C(=C/c2cc[n+](C)c3ccccc23)Sc2ccccc21 [listing 2 of 2 here] |  |  |  | 4 | 4 |  |  |  |  | 
CC[n+]1ccc(/C=C2\Sc3ccccc3N2C)c2ccccc21 | 12 | 170 | 14 |  |  |  |  |  |  | 72
